Among the data in ChEMBL document CHEMBL5291721, “A preclinical secondary pharmacology resource illuminates target-adverse drug reaction associations of marketed drugs” (Nat Commun, 2023) are AC50 values, retold here.

Assay [1] concerns the target T1, Progesterone receptor (Homo sapiens, UniProt P06401).
T1 sequence (P06401 whole entry): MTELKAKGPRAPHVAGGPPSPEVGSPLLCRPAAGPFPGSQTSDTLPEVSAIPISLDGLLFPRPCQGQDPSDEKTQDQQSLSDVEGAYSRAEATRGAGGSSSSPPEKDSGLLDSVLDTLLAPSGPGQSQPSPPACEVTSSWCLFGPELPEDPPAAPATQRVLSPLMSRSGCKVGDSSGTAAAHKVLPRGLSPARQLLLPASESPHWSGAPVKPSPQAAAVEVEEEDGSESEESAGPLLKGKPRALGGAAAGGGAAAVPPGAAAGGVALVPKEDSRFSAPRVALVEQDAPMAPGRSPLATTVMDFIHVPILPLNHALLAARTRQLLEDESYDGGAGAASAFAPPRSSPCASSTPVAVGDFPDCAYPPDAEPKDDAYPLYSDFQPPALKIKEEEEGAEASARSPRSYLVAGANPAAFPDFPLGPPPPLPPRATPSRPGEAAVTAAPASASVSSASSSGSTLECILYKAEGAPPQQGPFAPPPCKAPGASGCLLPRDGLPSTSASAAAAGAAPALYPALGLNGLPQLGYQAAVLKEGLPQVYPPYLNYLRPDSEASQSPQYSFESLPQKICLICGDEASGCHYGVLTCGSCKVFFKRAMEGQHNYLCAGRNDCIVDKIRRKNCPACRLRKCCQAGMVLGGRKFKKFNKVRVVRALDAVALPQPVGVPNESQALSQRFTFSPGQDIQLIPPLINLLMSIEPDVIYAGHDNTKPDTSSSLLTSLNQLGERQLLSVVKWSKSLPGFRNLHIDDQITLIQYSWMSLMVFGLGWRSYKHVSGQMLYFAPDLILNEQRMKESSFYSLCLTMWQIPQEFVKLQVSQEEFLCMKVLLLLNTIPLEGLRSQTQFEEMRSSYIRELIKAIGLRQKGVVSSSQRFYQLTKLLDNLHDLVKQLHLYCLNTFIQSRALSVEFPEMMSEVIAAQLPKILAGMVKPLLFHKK

The target in assay [2] is Gamma-aminobutyric acid type B receptor subunit 1 (Homo sapiens, UniProt Q9UBS5).
In assay [3] the target is Neurotensin receptor type 1 (Homo sapiens, UniProt P30989).
Assay [4] deals with Voltage-dependent N-type calcium channel subunit alpha-1B (Rattus norvegicus, UniProt Q02294). The format is functional.
Assay [5] deals with T2, Alpha-1A adrenergic receptor (Homo sapiens, UniProt P35348).
T2 sequence (P35348 whole entry): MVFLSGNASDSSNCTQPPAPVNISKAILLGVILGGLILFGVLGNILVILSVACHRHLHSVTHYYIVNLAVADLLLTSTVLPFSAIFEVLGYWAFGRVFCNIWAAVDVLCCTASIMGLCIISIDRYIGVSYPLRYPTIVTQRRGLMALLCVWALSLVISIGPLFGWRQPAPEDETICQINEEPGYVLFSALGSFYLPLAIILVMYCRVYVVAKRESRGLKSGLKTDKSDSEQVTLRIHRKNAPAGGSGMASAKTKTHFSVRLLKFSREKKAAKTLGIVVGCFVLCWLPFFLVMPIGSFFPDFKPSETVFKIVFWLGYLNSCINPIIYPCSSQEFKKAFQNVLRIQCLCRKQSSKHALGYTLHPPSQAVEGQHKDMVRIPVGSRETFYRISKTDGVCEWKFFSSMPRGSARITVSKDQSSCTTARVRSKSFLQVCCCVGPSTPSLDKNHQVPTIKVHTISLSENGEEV

Assay [6] has as its target Substance-P receptor (Homo sapiens, UniProt P25103).
Assay [7] concerns the target Glucagon receptor (Homo sapiens, UniProt P47871).
The target of assay [8] is 5-hydroxytryptamine receptor 7 (Homo sapiens, UniProt P34969).
Assay [9] addresses Beta-3 adrenergic receptor (Homo sapiens, UniProt P13945).
In assay [10] the target is T3, Androgen receptor (Rattus norvegicus, UniProt P15207).
T3 sequence (P15207 whole entry): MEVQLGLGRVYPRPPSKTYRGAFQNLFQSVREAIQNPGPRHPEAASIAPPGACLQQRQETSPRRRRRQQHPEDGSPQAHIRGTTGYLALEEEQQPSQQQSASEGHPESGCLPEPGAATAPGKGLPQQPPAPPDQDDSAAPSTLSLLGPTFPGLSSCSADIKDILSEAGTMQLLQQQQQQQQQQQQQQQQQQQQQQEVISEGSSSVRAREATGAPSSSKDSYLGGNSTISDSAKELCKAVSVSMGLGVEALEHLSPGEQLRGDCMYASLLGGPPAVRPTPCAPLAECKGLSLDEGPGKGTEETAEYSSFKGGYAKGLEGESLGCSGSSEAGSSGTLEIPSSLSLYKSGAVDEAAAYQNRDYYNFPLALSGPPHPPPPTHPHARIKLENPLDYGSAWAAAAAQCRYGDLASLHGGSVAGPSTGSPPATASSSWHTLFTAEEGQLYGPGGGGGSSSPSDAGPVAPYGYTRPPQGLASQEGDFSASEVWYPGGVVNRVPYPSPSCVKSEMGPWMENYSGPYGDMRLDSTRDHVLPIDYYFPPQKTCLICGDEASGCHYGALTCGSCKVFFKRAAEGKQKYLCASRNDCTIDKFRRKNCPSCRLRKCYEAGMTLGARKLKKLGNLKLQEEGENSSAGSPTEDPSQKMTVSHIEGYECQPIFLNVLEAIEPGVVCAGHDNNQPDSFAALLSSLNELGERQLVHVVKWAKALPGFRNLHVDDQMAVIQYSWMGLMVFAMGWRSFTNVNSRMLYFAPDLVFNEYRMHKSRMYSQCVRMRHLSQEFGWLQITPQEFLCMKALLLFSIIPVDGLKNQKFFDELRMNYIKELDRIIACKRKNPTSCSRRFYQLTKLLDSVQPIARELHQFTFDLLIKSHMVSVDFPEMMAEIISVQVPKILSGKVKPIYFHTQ
Further: assay procedure not described here.

Glucagon receptor, sequence (P47871 whole entry): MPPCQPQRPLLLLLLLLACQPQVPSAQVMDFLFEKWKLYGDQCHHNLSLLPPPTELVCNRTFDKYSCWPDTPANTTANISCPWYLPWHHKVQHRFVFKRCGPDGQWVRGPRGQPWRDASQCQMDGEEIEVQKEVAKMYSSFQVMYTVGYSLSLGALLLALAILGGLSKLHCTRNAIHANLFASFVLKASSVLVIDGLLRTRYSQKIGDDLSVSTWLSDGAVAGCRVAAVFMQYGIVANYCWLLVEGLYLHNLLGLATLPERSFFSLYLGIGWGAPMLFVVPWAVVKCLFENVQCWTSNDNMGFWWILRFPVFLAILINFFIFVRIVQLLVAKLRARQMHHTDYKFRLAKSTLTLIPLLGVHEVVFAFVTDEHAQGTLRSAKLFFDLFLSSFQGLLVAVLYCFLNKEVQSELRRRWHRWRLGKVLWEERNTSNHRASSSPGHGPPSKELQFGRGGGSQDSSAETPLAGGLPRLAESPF
5-hydroxytryptamine receptor 7, sequence (P34969 whole entry): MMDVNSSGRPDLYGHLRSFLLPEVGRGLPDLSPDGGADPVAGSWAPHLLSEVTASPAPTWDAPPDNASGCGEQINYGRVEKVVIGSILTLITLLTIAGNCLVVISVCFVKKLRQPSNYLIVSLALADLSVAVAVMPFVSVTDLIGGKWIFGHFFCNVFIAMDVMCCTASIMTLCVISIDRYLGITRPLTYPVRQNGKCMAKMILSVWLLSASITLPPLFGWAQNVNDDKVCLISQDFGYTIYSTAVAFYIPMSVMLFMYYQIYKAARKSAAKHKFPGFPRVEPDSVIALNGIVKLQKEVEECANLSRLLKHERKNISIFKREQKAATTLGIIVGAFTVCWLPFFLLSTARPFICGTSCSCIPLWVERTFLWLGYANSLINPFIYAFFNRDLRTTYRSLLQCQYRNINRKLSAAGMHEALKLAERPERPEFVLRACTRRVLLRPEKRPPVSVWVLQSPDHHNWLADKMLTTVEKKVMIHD
Gamma-aminobutyric acid type B receptor subunit 1, sequence (Q9UBS5 whole entry): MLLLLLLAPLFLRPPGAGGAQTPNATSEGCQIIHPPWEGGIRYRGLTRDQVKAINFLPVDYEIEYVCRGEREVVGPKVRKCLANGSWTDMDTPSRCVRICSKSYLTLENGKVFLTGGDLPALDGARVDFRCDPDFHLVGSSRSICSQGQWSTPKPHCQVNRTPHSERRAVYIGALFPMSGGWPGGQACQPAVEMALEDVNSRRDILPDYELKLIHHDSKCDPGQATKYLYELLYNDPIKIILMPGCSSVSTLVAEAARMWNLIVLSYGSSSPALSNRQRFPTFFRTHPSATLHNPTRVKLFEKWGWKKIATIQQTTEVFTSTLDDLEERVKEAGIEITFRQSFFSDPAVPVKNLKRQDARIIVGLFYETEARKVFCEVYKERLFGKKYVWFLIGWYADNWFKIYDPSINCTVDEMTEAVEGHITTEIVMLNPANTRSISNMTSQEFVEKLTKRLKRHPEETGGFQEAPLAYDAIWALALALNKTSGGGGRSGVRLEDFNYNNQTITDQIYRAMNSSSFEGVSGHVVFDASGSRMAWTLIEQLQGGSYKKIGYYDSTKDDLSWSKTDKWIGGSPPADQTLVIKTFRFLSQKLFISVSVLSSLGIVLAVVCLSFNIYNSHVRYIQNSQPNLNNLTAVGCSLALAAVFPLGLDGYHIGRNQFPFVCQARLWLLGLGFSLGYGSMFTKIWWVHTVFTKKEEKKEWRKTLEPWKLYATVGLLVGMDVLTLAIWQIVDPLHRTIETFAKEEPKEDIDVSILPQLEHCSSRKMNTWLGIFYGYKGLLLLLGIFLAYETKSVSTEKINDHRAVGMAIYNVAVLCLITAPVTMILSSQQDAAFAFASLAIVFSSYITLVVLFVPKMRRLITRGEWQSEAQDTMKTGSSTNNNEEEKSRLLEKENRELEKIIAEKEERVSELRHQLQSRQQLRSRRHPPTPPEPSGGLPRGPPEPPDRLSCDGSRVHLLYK
Neurotensin receptor type 1, sequence (P30989 whole entry): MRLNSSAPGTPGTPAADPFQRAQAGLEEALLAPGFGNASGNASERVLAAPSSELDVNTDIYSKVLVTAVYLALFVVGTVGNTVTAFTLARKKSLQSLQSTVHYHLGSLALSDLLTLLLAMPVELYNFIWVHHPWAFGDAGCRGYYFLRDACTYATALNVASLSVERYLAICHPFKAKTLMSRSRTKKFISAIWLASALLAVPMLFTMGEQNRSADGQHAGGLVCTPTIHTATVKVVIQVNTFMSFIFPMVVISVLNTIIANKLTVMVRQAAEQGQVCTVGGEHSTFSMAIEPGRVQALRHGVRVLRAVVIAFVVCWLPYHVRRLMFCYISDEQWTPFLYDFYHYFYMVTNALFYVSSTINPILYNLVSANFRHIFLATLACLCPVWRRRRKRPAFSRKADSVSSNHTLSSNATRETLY
Substance-P receptor, sequence (P25103 whole entry): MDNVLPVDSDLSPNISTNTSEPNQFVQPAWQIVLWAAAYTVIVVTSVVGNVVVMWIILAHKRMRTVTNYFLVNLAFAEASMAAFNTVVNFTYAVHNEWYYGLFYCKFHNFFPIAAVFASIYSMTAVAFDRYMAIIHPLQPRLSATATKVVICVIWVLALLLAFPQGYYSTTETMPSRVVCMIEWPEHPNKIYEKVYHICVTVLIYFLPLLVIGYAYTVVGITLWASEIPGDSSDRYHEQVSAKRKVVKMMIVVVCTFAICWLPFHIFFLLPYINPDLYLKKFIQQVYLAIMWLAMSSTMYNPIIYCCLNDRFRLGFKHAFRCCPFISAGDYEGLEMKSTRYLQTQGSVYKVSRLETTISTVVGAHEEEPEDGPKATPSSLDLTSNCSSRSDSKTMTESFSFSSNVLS
Voltage-dependent N-type calcium channel subunit alpha-1B, sequence (Q02294 whole entry): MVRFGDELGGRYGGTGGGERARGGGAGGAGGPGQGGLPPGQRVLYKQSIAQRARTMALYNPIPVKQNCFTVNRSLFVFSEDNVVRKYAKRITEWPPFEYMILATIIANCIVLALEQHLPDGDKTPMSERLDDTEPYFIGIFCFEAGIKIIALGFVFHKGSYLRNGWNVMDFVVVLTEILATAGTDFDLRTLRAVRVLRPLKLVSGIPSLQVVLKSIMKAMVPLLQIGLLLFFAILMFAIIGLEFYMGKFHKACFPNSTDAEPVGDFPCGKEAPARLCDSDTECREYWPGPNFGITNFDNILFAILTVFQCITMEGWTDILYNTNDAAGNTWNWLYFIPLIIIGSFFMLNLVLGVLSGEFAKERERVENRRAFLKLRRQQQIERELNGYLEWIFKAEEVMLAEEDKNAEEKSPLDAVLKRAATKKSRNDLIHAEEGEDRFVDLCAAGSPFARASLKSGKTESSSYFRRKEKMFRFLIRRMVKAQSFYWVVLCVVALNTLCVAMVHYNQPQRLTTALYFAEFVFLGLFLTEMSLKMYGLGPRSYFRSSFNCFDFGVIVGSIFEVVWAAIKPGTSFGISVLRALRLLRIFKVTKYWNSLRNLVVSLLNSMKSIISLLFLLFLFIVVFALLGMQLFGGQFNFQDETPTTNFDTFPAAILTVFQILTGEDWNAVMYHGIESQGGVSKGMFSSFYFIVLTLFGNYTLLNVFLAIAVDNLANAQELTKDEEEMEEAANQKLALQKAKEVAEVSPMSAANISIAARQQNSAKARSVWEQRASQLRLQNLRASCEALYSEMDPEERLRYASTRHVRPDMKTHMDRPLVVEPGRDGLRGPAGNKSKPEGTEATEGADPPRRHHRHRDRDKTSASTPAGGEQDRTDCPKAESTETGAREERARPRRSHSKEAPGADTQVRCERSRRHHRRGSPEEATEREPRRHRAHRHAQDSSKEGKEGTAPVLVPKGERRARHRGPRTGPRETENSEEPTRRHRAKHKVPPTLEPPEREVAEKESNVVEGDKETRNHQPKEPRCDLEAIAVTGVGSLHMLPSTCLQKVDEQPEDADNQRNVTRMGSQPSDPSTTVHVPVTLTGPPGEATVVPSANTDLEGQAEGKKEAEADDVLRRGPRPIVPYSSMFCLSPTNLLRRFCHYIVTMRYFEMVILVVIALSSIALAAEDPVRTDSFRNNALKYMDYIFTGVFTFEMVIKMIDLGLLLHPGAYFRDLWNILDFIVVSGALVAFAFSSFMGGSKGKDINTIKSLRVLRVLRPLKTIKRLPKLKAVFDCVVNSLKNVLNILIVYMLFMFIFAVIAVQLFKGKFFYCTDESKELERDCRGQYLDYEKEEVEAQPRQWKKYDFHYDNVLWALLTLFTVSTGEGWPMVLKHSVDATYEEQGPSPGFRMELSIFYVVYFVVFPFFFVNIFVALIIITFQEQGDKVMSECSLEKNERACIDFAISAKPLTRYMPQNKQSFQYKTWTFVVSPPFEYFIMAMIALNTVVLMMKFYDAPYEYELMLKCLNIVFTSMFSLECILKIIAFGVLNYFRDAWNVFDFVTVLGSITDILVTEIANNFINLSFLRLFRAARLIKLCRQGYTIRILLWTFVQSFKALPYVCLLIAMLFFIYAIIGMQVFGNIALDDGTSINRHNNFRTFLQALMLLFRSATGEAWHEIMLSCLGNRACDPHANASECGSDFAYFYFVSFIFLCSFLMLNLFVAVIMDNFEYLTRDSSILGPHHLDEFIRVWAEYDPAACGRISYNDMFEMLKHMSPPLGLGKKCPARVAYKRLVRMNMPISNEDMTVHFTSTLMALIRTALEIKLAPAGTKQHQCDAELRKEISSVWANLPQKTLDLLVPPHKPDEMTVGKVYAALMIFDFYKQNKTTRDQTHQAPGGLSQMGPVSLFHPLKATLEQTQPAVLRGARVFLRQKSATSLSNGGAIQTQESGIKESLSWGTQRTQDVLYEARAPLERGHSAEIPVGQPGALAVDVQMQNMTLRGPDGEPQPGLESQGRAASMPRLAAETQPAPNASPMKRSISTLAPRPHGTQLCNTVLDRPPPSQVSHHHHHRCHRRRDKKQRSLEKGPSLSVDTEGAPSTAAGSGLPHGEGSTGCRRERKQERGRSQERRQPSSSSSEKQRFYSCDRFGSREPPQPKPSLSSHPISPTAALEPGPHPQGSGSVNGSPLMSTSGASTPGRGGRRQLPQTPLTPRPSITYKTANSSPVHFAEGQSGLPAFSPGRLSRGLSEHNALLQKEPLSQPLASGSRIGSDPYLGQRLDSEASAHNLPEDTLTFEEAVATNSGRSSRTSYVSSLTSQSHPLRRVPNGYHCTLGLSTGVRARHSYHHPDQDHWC

The term AC50 denotes the midpoint of the concentration-response curve, whichever way the signal moves. Consider `NCCCC(O)(P(=O)(O)O)P(=O)(O)O` [ALENDRONIC ACID], for which the half-maximal activity concentration (AC50) in [1] was above 30 µM; in assay [2] it was above 10 µM; in assay [3], above 30 µM; in assay [4], above 10 µM; in assay [5], above 10 µM; in [6], above 10 µM. Also, the AC50 is above 30 µM in [7], above 10 µM in assay [8] and above 30 µM in [9].

In [10], `NS(=O)(=O)c1cc2c(cc1C(F)(F)F)NC(Cc1ccccc1)NS2(=O)=O` (centres undefined) [BENDROFLUMETHIAZIDE] registered an AC50 above 10 µM.

Consider `CCN(CC)C(=O)C1CN2CCc3cc(OC)c(OC)cc3C2CC1OC(C)=O` (centres undefined) [BENZQUINAMIDE], for which, in assay [10], the concentration at half-maximal activity (AC50) was above 10 µM.

`CCCC(C)(COC(N)=O)COC(=O)NC(C)C` (centres undefined) [CARISOPRODOL]: the AC50 is above 30 µM in assay [1]; above 30 µM in assay [3]; above 10 µM in [4]; above 10 µM in assay [5]; above 10 µM in assay [6]; above 30 µM in [7]. Further, in assay [9], the AC50 is above 30 µM.

`CC(C)(C)NCC(O)c1cc(Cl)c(N)c(Cl)c1` (centres undefined) [CLENBUTEROL]: the AC50 in [10] was above 30 µM.

As for `N[C@H](Cc1cc(I)c(Oc2cc(I)c(O)c(I)c2)c(I)c1)C(=O)O` [DEXTROTHYROXINE], the AC50 was above 30 µM in assay [1]; 4.8 µM in [3]; above 10 µM in assay [4]; above 30 µM in [7]; above 30 µM in [9].

For the compound `Clc1ccc2c(c1)C(c1ccccc1)=NCc1nncn1-2` [ESTAZOLAM], the AC50 in assay [1] and in assay [10] was above 30 µM each time.

`CC(=O)OCC(CCn1cnc2cnc(N)nc21)COC(C)=O` [FAMCICLOVIR]: the AC50 in assay [1] was above 30 µM; in assay [3], above 30 µM; in [4], above 10 µM; in assay [5], above 10 µM; in [6], above 10 µM; in [10], above 30 µM. Further, the AC50 in assay [7] and in assay [9] was above 30 µM throughout.

`Nc1nc(F)nc2c1ncn2[C@@H]1O[C@H](COP(=O)(O)O)[C@@H](O)[C@@H]1O` [FLUDARABINE PHOSPHATE] returned an AC50 in assay [10] above 30 µM.

For the compound `O=C(O)c1ccccc1Nc1cccc(C(F)(F)F)c1` [FLUFENAMIC ACID], the AC50 in assay [1] was above 30 µM; in assay [3], above 30 µM; in assay [4] it was above 10 µM; in [10] it was above 30 µM; in [7] it was above 30 µM; in assay [9], above 30 µM.

As for `COC1=C(OC)C(=O)C(CCCCCCCCCCO)=C(C)C1=O` [IDEBENONE], the concentration at half-maximal activity (AC50) in [1] was 27.6 µM; in assay [2] it was above 10 µM; in assay [3], above 30 µM; in [4], above 10 µM; in [5] it was above 10 µM; in [6], above 10 µM. For the same compound, the AC50 in assay [10] was above 30 µM; in [7], above 30 µM; in assay [8] it was above 10 µM; in assay [9] it was above 30 µM.

As to `CC#CCn1c(N2CCC[C@@H](N)C2)nc2c1c(=O)n(Cc1nc(C)c3ccccc3n1)c(=O)n2C` [LINAGLIPTIN], the AC50 was above 30 µM in [1], above 10 µM in [4], above 30 µM in assay [10] and above 30 µM in [9].

Turning to `O=C1CN=C(c2ccccc2)c2cc(Cl)ccc2N1` [NORDAZEPAM], the AC50 was above 30 µM in assay [1]; above 10 µM in [2]; 14 µM in assay [3]; above 10 µM in [4]; above 10 µM in [5]; above 10 µM in assay [6]. The AC50 in [7] is above 30 µM; in assay [8] it was above 10 µM; in assay [9], above 30 µM.

As to `CC(CCc1ccccc1)NC(C)C(O)c1ccc(O)cc1` (centres undefined) [NYLIDRIN], the AC50 is above 30 µM in assay [1]; above 10 µM in assay [2]; above 30 µM in assay [3]; above 10 µM in assay [4]; above 10 µM in assay [6]; above 30 µM in assay [7]. For the same compound, the AC50 is above 10 µM in [8] and above 30 µM in [9].

Turning to `O=C1Nc2ccc(Cl)cc2C(c2ccccc2)=NC1O` (centres undefined) [OXAZEPAM], the AC50 is above 30 µM in [1]; above 10 µM in [2]; above 30 µM in assay [3]; above 10 µM in assay [4]; above 10 µM in assay [5]; above 10 µM in assay [6]. Besides, the AC50 in assay [7] was above 30 µM; in [8], above 10 µM; in [9], above 30 µM.

In turn, `CC1(C)C(C=C(Cl)Cl)C1C(=O)OCc1cccc(Oc2ccccc2)c1` (centres undefined) [PERMETHRIN] had an AC50 in assay [10] above 30 µM.

With `NC(=O)CCC/N=C(\c1ccc(Cl)cc1)c1cc(F)ccc1O` [PROGABIDE], the AC50 in assay [10] is above 10 µM.

Turning to `CC(C)CC(N(C)C)C1(c2ccc(Cl)cc2)CCC1` (centres undefined) [SIBUTRAMINE], the AC50 in assay [1] was above 30 µM; in [2], above 10 µM; in [3], above 30 µM; in assay [4] it was above 10 µM; in assay [5] it was above 10 µM; in assay [6], above 10 µM. In addition, the AC50 in assay [7] and in [9] was above 30 µM in each case.

For `[H]/N=C(/N)N[C@H]1[C@H](O)[C@@H](O)[C@H](O[C@@H]2O[C@@H](C)[C@](O)(C=O)[C@H]2O[C@@H]2O[C@@H](CO)[C@H](O)[C@@H](O)[C@@H]2NC)[C@@H](N/C(N)=N\[H])[C@@H]1O` [STREPTOMYCIN], the AC50 in [1] was above 30 µM; in [3], above 30 µM; in [4] it was above 10 µM; in assay [5], above 10 µM; in [6], above 10 µM; in assay [7], above 30 µM. Moreover, the AC50 is above 10 µM in assay [8] and above 30 µM in [9].

For `COc1ccc(C(CN(C)C)C2(O)CCCCC2)cc1` (centres undefined) [VENLAFAXINE], the AC50 in assay [1] is above 30 µM; in assay [4] it was above 10 µM.

`N#C[C@@H]1CCCN1C(=O)CNC12CC3CC(CC(O)(C3)C1)C2` [VILDAGLIPTIN]: the AC50 is above 30 µM in [1]; above 10 µM in [2]; above 10 µM in assay [3]; above 10 µM in assay [4]; above 10 µM in assay [5]; above 10 µM in assay [6]. The AC50 in assay [10] was above 30 µM; in assay [8], above 10 µM.
